ChEMBL document CHEMBL4825711, “Necrostatins regulate apoptosis, necroptosis, and inflammation in cisplatin-induced nephrotoxicity in LLC-PK1 cells” (2021)
Activity calls are given as the source filed them. No cut-off for these calls is given here.

How the values were obtained:
LLC-PK1 [1] = experiment: Protection against cisplatin-induced nephrotoxicity in pig LLC-PK1 cells assessed as increase in cell viability at 50 to 1000 uM measured after 24 hrs in presence of cisplatin; type: functional, cell-based; conditions: Sus scrofa, dose 50-1000 µM
LLC-PK1 [2] = experiment: Protection against cisplatin-induced nephrotoxicity in pig LLC-PK1 cells assessed as cell viability at 1000 uM measured after 24 hrs in presence of cisplatin; type: functional; conditions: Sus scrofa, read-out: Activity
LLC-PK1 [3] = experiment: Protection against cisplatin-induced nephrotoxicity in pig LLC-PK1 cells assessed as cell viability at 50 uM measured after 24 hrs in presence of cisplatin; type: functional; conditions: Sus scrofa, read-out: Activity
LLC-PK1 [4] = experiment: Protection against cisplatin-induced nephrotoxicity in pig LLC-PK1 cells assessed as increase in cell viability measured after 24 hrs in presence of cisplatin; type: functional, cell-based; conditions: Sus scrofa, dose 3.125-50 µM
LLC-PK1 [5] = experiment: Protection against cisplatin-induced nephrotoxicity in pig LLC-PK1 cells assessed as inhibition of apoptosis by measuring reduction in green stained cells at 50 uM measured after 24 hrs in presence of cisplatin by Tali image based cytometric analysis; type: functional, cell-based; conditions: Sus scrofa
LLC-PK1 [6] = experiment: Protection against cisplatin-induced nephrotoxicity in pig LLC-PK1 cells assessed as inhibition of apoptosis by measuring decrease in cleaved caspase-3 level at 50 uM measured after 24 hrs in presence of cisplatin by western blot analysis; type: functional, cell-based; conditions: Sus scrofa
LLC-PK1 [7] = experiment: Inhibition of cisplatin-induced JNK phosphorylation in pig LLC-PK1 cells at 50 uM measured after 24 hrs in presence of cisplatin by western blot analysis; type: cell-based; conditions: Sus scrofa
LLC-PK1 [8] = experiment: Inhibition of cisplatin-induced ERK phosphorylation in pig LLC-PK1 cells at 50 uM measured after 24 hrs in presence of cisplatin by western blot analysis; type: cell-based; conditions: Sus scrofa
LLC-PK1 [9] = experiment: Inhibition of cisplatin-induced p38 MAPK phosphorylation in pig LLC-PK1 cells at 50 uM measured after 24 hrs in presence of cisplatin by western blot analysis; type: cell-based; conditions: Sus scrofa
LLC-PK1 [10] = experiment: Protection against cisplatin-induced nephrotoxicity in pig LLC-PK1 cells assessed as inhibition of apoptosis by measuring red-stained dead cells at 50 uM measured after 24 hrs in presence of cisplatin by Tali image based cytometric analysis; type: functional, cell-based; conditions: Sus scrofa

Compound | Activity (LLC-PK1 [1]) | viability at 1000 µM (LLC-PK1 [2]) | viability at 50 µM (LLC-PK1 [3]) | Activity (LLC-PK1 [4]) | Activity (LLC-PK1 [5]) | Activity (LLC-PK1 [6]) | inhibition (LLC-PK1 [7]) | inhibition (LLC-PK1 [8]) | inhibition (LLC-PK1 [9]) | Activity (LLC-PK1 [10])
CC(=O)N[C@@H](CS)C(=O)O [ACETYLCYSTEINE] | Dose-Dependent Effect | 89.4% |  |  |  |  |  |  |  | 
COc1ccc([C@H]2[C@H]3CCc4ccc(OC)cc4C3=NN2C(C)=O)cc1 |  |  | 87.5% | Dose-Dependent Effect | Active | Active | Active | Active | Active | 
COc1ccc([C@H]2[C@@H]3CCc4ccc(OC)cc4C3=NN2C(C)=O)cc1 |  |  | 84.5% |  | Active | Active | Active | Active | Active | 
CN1C(=O)C(Cc2c[nH]c3ccccc23)NC1=S (stereo not drawn) [NECROSTATIN] |  |  | 90.5% | Dose-Dependent Effect | Active | Active | Active | Active | Active | inactive
